# Columns and labels:
# [1] = CCClick: 37% aq formaldehyde (5 mM, 5 eq) bridges the two exocyclic methylene carbons of a Fischer base dimer (two C-C bonds), then hemin (1 eq)/air oxidative dehydrogenation, one pot; Al2O3 column; details: the molecule shown is the open-chain precursor, DMF, 1.0 mM, 37.0 °C, 12.0 h
# [2] = CCClick: formaldehyde (10 mM) bridges the two exocyclic methylene carbons of a Fischer base dimer (Knoevenagel dehydration cyclization, two C-C bonds), then hemin (1 mM)/air oxidative dehydrogenation to cyclic trimethine cyanine; details: the molecule shown is the open-chain precursor, DMF, 37.0 °C, 12.0 h
SMILES,"ring closure, isolated yield ([1]; 13-membered ring) [%]","ring closure, conversion by HPLC ([2]; 13-membered ring) [%]",further results
C=C1N(CCCCCCN2C(=C)C(C)(C)c3c2ccc2ccccc32)c2ccc3ccccc3c2C1(C)C [FB1 -> CY-1],62,90,
C=C1N(CCCCCCN2C(=C)C(C)(C)c3c2ccc2ccccc32)c2ccc(OCCCCCC[P+](c3ccccc3)(c3ccccc3)c3ccccc3)cc2C1(C)C.[I-] [FB2 -> CY-2],57,90,
C=C1N(CCCCCCN2C(=C)C(C)(C)c3c2ccc2ccccc32)c2ccccc2C1(C)C [FB3 -> CY-3],35,48,
C=C1N(CCCCCCN2C(=C)C(C)(C)c3cc(OC)ccc32)c2ccc(OC)cc2C1(C)C [FB4 -> CY-4],40,85,
C=C1N(CCCCCCN2C(=C)C(C)(C)c3ccccc32)c2ccccc2C1(C)C [FB5 -> CY-5],26,31,
C=C1N(CCCCCCCCCCCCN2C(=C)C(C)(C)c3ccccc32)c2ccccc2C1(C)C [FB6 -> CY-6],,,"ring closure, isolated yield ([1]; 19-membered ring): 29%; ring closure, conversion by HPLC ([2]; 19-membered ring): 31%"
C=C1N(CCCCCCCCCCCCCCCCCCN2C(=C)C(C)(C)c3ccccc32)c2ccccc2C1(C)C [FB7 -> CY-7],,,"ring closure, isolated yield ([1]; 25-membered ring): 22%; ring closure, conversion by HPLC ([2]; 25-membered ring): 24%"
C=C1N(CCOCCOCCN2C(=C)C(C)(C)c3c2ccc2ccccc32)c2ccc3ccccc3c2C1(C)C [FB8 -> CY-8],,,"ring closure, isolated yield ([1]; 15-membered ring): 16%; ring closure, conversion by HPLC ([2]; 15-membered ring): 34%"
C=C1N(CCCCCCCCCCCCN2C(=C)C(C)(C)c3c2ccc2ccccc32)c2ccc3ccccc3c2C1(C)C [FB9 -> CY-9],,,"ring closure, isolated yield ([1]; 19-membered ring): 44%; ring closure, conversion by HPLC ([2]; 19-membered ring): 77%"
